Like-named read-outs stand apart in the source and are kept apart here.
Tests used:
[1] = tissue concentrations after intraperitoneal injection into a live rat; type: in vivo; conditions: ip, 6 mg i.p.
[2] = target: isolated smooth muscle myosin (UniProt P10587); type: biochemical, chamois
[3] = target: isolated smooth muscle myosin (UniProt P10587); type: biochemical, chamois; conditions: concentration required for semi-maximal inhibition of ATPase
Excerpt: (ii) the concentration required for semi-maximal inhibition.

[4] = target: recombinant human non-muscle myosin 2 NM2C (Homo sapiens, UniProt Q7Z406); assay: actomyosin steady state ATPase measurement, NM2C; type: biochemical
Excerpt: (§1) […]; (ii) the concentration required for semi-maximal inhibition.

[5] = target: T1, isolated porcine cardiac ventricular myocardium (cardiac) (Sus scrofa, UniProt P79293); assay: actomyosin steady state ATPase measurement, cardiac myosin; type: biochemical
T1 construct: isolated porcine cardiac ventricular myocardium (cardiac); from tissue; host or cells: porcine cardiac ventricle
Excerpt: as §1

[6] = target: recombinant Dictyostelium miozin (Dictyostelium) (Dictyostelium discoideum, UniProt P08799); assay: actomyosin steady state ATPase measurement, Dictyostelium myosin; type: biochemical
Excerpt: as §1

[7] = target: recombinant human non-muscle myosin 2 NM2B (Homo sapiens, UniProt P35580); assay: actomyosin steady state ATPase measurement, NM2B; type: biochemical
Excerpt: as §1

[8] = target: recombinant human non-muscle myosin 2 NM2A (Homo sapiens, UniProt P35579); assay: actomyosin steady state ATPase measurement, NM2A; type: biochemical
Excerpt: as §1

[9] = solubility in PBS in the presence of 1% DMSO; type: physicochemical; conditions: phosphate buffered saline with 1% DMSO, aqueous buffer, kinetic from dmso stock, PBS w/o Mg, Ca
[10] = system: isolated rabbit skeletal muscle myosin (skeletal); assay: actomyosin steady state ATPase measurement, skeletal muscle myosin; type: biochemical
Excerpt: as §1

[11] = vital parameters of live anesthetized rats monitored during isometric force measurement; type: in vivo; conditions: anesthetized rat; for Maximum change of vital parameters (%) blood flow: neck arteries
Description: (§2) The maximum isometric force induced by the stimulation was determined after intraperitoneal injection of some of the compounds of the invention. During the measurement, the following parameters of live anesthetized rats were continuously monitored: • a) heart rate • b) blood flow in the neck arteries • c) respiratory frequency • d) blood oxygen saturation ratio

S. typhimurium TA98 = assay: Ames Reverse Mutagenicity Assay (Ames MPF Test), TA98; type: cell-based
Description: Mutagenicity of the compounds was determined in the Ames Reverse Mutagenicity Assay (Ames MPF Test, Xenometrix Inc.) approved by the OECD, EMA and FDA on S. typhimurium TA98 and TA100 strains without or in the presence of S9 rat liver fraction. Relative mutagenicity values were prepared using a table provided by the manufacturer. Relative mutagenicity values according to OECD, EMA, and FDA standards may not exceed 2 at any concentration because in such a case they are potentially mutagenic.

M. quadriceps femoris = assay: isometric force measurement of live, anesthetized rat M. quadriceps femoris due to electrical stimulation; type: in vivo
Description: as §2, with “saturation ratio Results from live anesthetized rats are summarized in the table below.” for “saturation ratio”

[12] = blood, read-out: Concentration of compound 188 in tissue samples (μM) blood
[13] = brain, read-out: Concentration of compound 188 in tissue samples (μM) brain
[14] = skeletal muscle, read-out: Concentration of compound 188 in tissue samples (μM) muscle
[15] = kidney, read-out: Concentration of compound 188 in tissue samples (μM) kidney
[16] = liver, read-out: Concentration of compound 188 in tissue samples (μM) liver
[17] = lung, read-out: Concentration of compound 188 in tissue samples (μM) lung
[18] = myocardium, read-out: Concentration of compound 188 in tissue samples (μM) myocardium
[19] = spleen, read-out: Concentration of compound 188 in tissue samples (μM) spleen
[20] = urine, read-out: Concentration of compound 188 in tissue samples (μM) urine
[21] = 5 μM (10 μM if racemate), ATPase activity
[22] = 50 μM (100 μM if racemate), ATPase activity
[23] = maximum value of inhibition of ATPase activity
[24] = concentration required for semi-maximal inhibition of ATPase

Sequence of isolated smooth muscle myosin (P10587 whole entry): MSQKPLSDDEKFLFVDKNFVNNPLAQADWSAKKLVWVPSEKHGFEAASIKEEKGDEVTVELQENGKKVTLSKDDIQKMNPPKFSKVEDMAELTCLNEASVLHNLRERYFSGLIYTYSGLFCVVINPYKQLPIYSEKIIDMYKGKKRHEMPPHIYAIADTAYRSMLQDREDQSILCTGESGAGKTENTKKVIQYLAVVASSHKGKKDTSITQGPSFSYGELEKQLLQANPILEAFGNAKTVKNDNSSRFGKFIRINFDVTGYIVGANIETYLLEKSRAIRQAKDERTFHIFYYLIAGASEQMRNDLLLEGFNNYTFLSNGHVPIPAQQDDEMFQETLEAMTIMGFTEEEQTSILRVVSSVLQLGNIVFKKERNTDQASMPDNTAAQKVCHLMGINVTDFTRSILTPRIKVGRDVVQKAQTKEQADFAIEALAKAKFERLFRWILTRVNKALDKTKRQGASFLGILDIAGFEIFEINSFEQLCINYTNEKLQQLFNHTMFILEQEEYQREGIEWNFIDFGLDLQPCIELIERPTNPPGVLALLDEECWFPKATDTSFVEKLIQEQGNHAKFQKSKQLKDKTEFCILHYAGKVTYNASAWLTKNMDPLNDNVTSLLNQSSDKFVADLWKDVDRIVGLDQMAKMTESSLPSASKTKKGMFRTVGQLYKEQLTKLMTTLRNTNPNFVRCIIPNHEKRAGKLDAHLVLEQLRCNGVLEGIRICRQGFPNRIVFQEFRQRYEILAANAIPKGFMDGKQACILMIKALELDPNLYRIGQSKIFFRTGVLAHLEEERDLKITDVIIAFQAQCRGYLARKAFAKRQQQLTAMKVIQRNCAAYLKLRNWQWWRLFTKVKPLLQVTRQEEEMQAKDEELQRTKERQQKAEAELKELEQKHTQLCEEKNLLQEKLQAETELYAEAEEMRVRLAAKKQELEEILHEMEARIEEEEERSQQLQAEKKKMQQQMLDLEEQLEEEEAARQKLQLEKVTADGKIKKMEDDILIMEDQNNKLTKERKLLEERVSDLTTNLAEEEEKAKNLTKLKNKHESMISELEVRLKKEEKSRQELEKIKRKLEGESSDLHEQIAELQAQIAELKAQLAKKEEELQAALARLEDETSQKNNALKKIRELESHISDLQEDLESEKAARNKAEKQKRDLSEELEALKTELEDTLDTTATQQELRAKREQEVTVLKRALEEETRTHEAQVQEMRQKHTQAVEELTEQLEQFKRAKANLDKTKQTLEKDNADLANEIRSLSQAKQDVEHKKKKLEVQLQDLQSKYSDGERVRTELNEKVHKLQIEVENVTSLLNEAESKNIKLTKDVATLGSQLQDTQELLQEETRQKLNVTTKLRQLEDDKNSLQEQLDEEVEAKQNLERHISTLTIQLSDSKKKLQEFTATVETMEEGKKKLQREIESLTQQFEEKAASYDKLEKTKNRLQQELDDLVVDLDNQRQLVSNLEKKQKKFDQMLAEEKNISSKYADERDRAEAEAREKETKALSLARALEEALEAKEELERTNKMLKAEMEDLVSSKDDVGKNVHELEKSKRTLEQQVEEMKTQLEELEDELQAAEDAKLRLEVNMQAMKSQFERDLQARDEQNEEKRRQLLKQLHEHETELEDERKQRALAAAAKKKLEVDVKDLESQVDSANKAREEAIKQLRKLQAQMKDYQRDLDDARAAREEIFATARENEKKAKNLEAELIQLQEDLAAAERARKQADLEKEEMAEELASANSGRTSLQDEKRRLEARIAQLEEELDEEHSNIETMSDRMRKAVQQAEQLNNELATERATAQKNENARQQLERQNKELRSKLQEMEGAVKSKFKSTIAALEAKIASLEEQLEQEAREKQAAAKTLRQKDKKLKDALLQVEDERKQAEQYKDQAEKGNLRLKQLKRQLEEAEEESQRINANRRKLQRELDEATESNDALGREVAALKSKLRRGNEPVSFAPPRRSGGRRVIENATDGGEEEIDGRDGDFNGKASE
Sequence of recombinant human non-muscle myosin 2 NM2B (P35580 whole entry): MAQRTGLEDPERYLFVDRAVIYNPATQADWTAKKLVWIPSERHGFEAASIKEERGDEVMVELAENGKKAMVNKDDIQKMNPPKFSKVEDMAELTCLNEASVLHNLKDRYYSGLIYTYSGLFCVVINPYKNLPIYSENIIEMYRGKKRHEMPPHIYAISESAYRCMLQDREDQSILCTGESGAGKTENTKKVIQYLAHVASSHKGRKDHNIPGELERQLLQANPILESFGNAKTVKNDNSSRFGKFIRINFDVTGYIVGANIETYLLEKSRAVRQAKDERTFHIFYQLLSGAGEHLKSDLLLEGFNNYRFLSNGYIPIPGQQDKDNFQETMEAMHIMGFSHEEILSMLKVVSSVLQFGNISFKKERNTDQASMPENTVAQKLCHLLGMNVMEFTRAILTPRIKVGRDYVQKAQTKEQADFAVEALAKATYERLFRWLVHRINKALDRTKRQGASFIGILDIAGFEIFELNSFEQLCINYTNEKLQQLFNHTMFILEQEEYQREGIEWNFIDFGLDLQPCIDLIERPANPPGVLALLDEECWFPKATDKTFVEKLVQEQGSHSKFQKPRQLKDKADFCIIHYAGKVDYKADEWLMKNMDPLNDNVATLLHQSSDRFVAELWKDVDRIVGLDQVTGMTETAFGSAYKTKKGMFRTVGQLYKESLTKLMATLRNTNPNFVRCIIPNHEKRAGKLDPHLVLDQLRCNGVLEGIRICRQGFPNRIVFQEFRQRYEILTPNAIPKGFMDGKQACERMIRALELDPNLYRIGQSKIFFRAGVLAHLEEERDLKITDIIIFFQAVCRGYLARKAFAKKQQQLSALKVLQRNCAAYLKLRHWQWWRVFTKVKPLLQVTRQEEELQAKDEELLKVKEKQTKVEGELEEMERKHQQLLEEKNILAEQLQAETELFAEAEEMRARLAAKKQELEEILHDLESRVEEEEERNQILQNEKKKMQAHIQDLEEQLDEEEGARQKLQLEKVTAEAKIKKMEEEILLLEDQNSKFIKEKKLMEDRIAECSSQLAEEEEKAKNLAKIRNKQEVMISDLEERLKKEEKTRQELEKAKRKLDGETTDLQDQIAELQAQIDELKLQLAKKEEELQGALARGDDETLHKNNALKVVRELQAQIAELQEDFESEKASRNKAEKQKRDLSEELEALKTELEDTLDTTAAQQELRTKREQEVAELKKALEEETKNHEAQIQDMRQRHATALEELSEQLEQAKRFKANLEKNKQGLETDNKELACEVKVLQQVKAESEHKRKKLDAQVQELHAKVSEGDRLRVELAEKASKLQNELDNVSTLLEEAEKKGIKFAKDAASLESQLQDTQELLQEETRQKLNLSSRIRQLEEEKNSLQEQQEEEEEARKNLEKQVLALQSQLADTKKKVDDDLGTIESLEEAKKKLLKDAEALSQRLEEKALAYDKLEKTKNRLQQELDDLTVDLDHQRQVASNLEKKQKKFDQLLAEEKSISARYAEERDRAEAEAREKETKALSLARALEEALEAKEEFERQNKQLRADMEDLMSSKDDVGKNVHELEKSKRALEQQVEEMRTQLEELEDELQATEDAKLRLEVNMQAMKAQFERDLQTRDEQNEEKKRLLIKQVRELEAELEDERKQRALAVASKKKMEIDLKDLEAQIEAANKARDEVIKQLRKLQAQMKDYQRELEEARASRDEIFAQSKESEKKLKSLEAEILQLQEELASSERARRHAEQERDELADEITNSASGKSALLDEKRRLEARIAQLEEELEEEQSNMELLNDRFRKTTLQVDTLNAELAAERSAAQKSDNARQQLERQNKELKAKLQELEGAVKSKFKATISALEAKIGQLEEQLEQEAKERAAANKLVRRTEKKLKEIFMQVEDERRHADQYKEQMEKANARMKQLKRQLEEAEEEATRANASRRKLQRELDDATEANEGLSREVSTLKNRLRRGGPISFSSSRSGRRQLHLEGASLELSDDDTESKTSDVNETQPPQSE

Question: Which results are given for `O=C1c2ccsc2N=C2N(c3ccc(N4CCOCC4)cc3)CCC12O` (stereo not shown) [Compound 188, 9-Hydroxy-12-[4-(morpholin-4-yl)phenyl]-4-thia-2,12-diazatricyclo[7.3.0.0^3,7]dodeca-1,3(7),5-trien-8-one]?
Answer: concentration at 5 min [1, 12]: 12 µM; concentration at 15 min [1, 12]: 16 µM; concentration at 30 min [1, 12]: 12 µM; concentration at 45 min [1, 12]: 10 µM; concentration at 60 min [1, 12]: 8 µM; concentration at 5 min [1, 13]: 25 µM; concentration at 15 min [1, 13]: 45 µM; concentration at 30 min [1, 13]: 36 µM; concentration at 45 min [1, 13]: 17 µM; concentration at 60 min [1, 13]: 5 µM; concentration at 5 min [1, 14]: 22 µM; concentration at 15 min [1, 14]: 48 µM; concentration at 30 min [1, 14]: 69 µM; concentration at 45 min [1, 14]: 78 µM; concentration at 60 min [1, 14]: 74 µM; concentration at 5 min [1, 15]: 29 µM; concentration at 15 min [1, 15]: 56 µM; concentration at 30 min [1, 15]: 20 µM; concentration at 45 min [1, 15]: 12 µM; concentration at 60 min [1, 15]: 3 µM; concentration at 5 min [1, 16]: 30 µM; concentration at 15 min [1, 16]: 18 µM; concentration at 30 min [1, 16]: 12 µM; concentration at 45 min [1, 16]: 9 µM; concentration at 60 min [1, 16]: 3 µM; concentration at 5 min [1, 17]: 25 µM; concentration at 15 min [1, 17]: 36 µM; concentration at 30 min [1, 17]: 22 µM; concentration at 45 min [1, 17]: 9 µM; concentration at 60 min [1, 17]: 4 µM; concentration at 5 min [1, 18]: 36 µM; concentration at 15 min [1, 18]: 48 µM; concentration at 30 min [1, 18]: 26 µM; concentration at 45 min [1, 18]: 18 µM; concentration at 60 min [1, 18]: 9 µM; concentration at 5 min [1, 19]: 37 µM; concentration at 15 min [1, 19]: 28 µM; concentration at 30 min [1, 19]: 11 µM; concentration at 45 min [1, 19]: 5 µM; concentration at 60 min [1, 19]: 3 µM; concentration at 5 min [1, 20]: 58 µM; concentration at 15 min [1, 20]: 77 µM; concentration at 30 min [1, 20]: 72 µM; concentration at 45 min [1, 20]: 63 µM; concentration at 60 min [1, 20]: 21 µM; % inhibition at 5 μM (or 10 μM if racemate) Smooth [2, 21]: 0%; % inhibition at 50 μM (or 100 μM if racemate) Smooth [2, 22]: 11%; % inhibition. complete Smooth [2, 23]: 100%; IC50 [3]: > 100 µM; IC50 [4, 24]: 4 µM; Inhibition (%) NM2C ([4]; maximum inhibition, compounds in IC50 range 1-5 μM): 15%; % inhibition. complete NM2C [4, 23]: 15%; inhibition at 5 µM ([4]; read-out: % inhibition at 5 μM (or 10 μM if racemate) NM2C, 5 μM (10 μM if racemate), ATPase activity): 8%; inhibition at 50 µM ([4]; read-out: % inhibition at 50 μM (or 100 μM if racemate) NM2C, 50 μM (100 μM if racemate), ATPase activity): 14%; IC50 [5, 24]: > 100 µM; % inhibition. complete cardiac [5, 23]: 32%; inhibition at 5 µM ([5]; read-out: % inhibition at 5 μM (or 10 μM if racemate) cardiac, 5 μM (10 μM if racemate), ATPase activity): 0%; inhibition at 50 µM ([5]; read-out: % inhibition at 50 μM (or 100 μM if racemate) cardiac, 50 μM (100 μM if racemate), ATPase activity): 8%; IC50 ([6]; concentration required for semi-maximal inhibition of ATPase, read-out: IC50 (μM) Dicty): 13 µM; % inhibition. complete Dicty [6, 23]: 19%; inhibition at 5 µM ([6]; read-out: % inhibition at 5 μM (or 10 μM if racemate) Dicty): 5%; inhibition at 50 µM ([6]; read-out: % inhibition at 50 μM (or 100 μM if racemate) Dicty): 15%; IC50 [7, 24]: 5 µM; % inhibition. complete NM2B [7, 23]: 19%; inhibition at 5 µM ([7]; read-out: % inhibition at 5 μM (or 10 μM if racemate) NM2B, 5 μM (10 μM if racemate), ATPase activity): 8%; inhibition at 50 µM ([7]; read-out: % inhibition at 50 μM (or 100 μM if racemate) NM2B, 50 μM (100 μM if racemate), ATPase activity): 18%; IC50 [8, 24]: 82 µM; % inhibition. complete NM2A [8, 23]: 31%; inhibition at 5 µM ([8]; read-out: % inhibition at 5 μM (or 10 μM if racemate) NM2A, 5 μM (10 μM if racemate), ATPase activity): 0%; inhibition at 50 µM ([8]; read-out: % inhibition at 50 μM (or 100 μM if racemate) NM2A, 50 μM (100 μM if racemate), ATPase activity): 9%; solubility [9]: 1450 µM; % inhibition at 5 μM (or 10 μM if racemate) Skeletal [10, 21]: 50%; % inhibition at 50 μM (or 100 μM if racemate) Skeletal [10, 22]: 95%; IC50 [10, 24]: 5 µM; % inhibition. complete Skeletal [10, 23]: 100%; Maximum change of vital parameters (%) heart rate ([11]; 1 mg i.p.): 3%; Maximum change of vital parameters (%) oxygen saturation ([11]; 1 mg i.p.): −16%; Maximum change of vital parameters (%) respiratory frequency ([11]; 1 mg i.p.): −18%; Maximum change of vital parameters (%) blood flow ([11]; 1 mg i.p.): 15%; Maximum change of vital parameters (%) heart rate ([11]; 3 mg i.p.): −3%; Maximum change of vital parameters (%) oxygen saturation ([11]; 3 mg i.p.): −3%; Maximum change of vital parameters (%) respiratory frequency ([11]; 3 mg i.p.): 5%; Maximum change of vital parameters (%) blood flow ([11]; 3 mg i.p.): −5%; Maximum change of vital parameters (%) heart rate ([11]; 6 mg i.p.): −9%; Maximum change of vital parameters (%) oxygen saturation ([11]; 6 mg i.p.): −1%; Maximum change of vital parameters (%) respiratory frequency ([11]; 6 mg i.p.): −1%; Maximum change of vital parameters (%) blood flow ([11]; 6 mg i.p.): −1%; Maximum change of vital parameters (%) heart rate ([11]; 9 mg i.p.): −12%; Maximum change of vital parameters (%) oxygen saturation ([11]; 9 mg i.p.): −27%; Maximum change of vital parameters (%) respiratory frequency ([11]; 9 mg i.p.): −40%; Maximum change of vital parameters (%) blood flow ([11]; 9 mg i.p.): 9%; Relative mutagenicity (as compared to the control value) (S. typhimurium TA98; TA98, +S9, 31.25 μM): 0.2; Relative mutagenicity (as compared to the control value) (S. typhimurium TA98; TA98, +S9, 62.5 μM): 0.2; Relative mutagenicity (as compared to the control value) (S. typhimurium TA98; TA98, +S9, 125 μM): 0.4; Relative mutagenicity (as compared to the control value) (S. typhimurium TA98; TA98, +S9, 250 μM): 0.4; Relative mutagenicity (as compared to the control value) (S. typhimurium TA98; TA98, +S9, 500 μM): 0.4; Relative mutagenicity (as compared to the control value) (S. typhimurium TA98; TA98, +S9, 1000 μM): 0.2; Relative mutagenicity (as compared to the control value) (S. typhimurium TA98; TA98, −S9, 31.25 μM): 1.2; Relative mutagenicity (as compared to the control value) (S. typhimurium TA98; TA98, −S9, 62.5 μM): 0.3; Relative mutagenicity (as compared to the control value) (S. typhimurium TA98; TA98, −S9, 125 μM): 0.7; Relative mutagenicity (as compared to the control value) (S. typhimurium TA98; TA98, −S9, 250 μM): 0.3; Relative mutagenicity (as compared to the control value) (S. typhimurium TA98; TA98, −S9, 500 μM): 0.7; Relative mutagenicity (as compared to the control value) (S. typhimurium TA98; TA98, −S9, 1000 μM): 1.0; Maximum change in isometric force at rear leg (%) (M. quadriceps femoris; 1 mg i.p.): 23%; Maximum change in isometric force at rear leg (%) (M. quadriceps femoris; 3 mg i.p.): 26%; Maximum change in isometric force at rear leg (%) (M. quadriceps femoris; 6 mg i.p.): 28%

— patent US12421243B2, “Pharmaceutically effective compounds inhibiting selectively the myosin 2 isoforms” (PRINTNET KERESKEDELMI ÉS SZOLGÁLTATÓ KFT., priority 2018, dated 2025)
